ChEMBL document CHEMBL1145707, “Methyl 4-hydroxy-3-(3'-methyl-2'-butenyl)benzoate, major insecticidal principle from Piper guanacastensis” (1997)
In brackets after ≈: the same amount, converted by molar mass.

Tested on: Aedes atropalpus
Experiment: Insecticidal activity against Aedes atropalpus second-instar larvae after 24 hrs
Type: functional

Structure (SMILES)	LC50
COC(=O)c1ccc(O)c(CC=C(C)C)c1	20.5 µg/mL (≈ 93.1 µM)
CCOC(=O)c1ccc(O)c(CC=C(C)C)c1	25.7 µg/mL (≈ 110 µM)
